Consider 2 molecules from paper PMC5089669, “Biocatalytic Properties and Structural Analysis of Eugenol Oxidase from Rhodococcus jostii RHA1: A Versatile Oxidative Biocatalyst” (Chembiochem, 2016).

Experiment [1] deals with T1, Eugenol oxidase (EUGO) (Rhodococcus jostii, UniProt Q0SBK1).
T1 construct: gene RHA1_ro03282; homodimer
T1 sequence (Q0SBK1 1-526): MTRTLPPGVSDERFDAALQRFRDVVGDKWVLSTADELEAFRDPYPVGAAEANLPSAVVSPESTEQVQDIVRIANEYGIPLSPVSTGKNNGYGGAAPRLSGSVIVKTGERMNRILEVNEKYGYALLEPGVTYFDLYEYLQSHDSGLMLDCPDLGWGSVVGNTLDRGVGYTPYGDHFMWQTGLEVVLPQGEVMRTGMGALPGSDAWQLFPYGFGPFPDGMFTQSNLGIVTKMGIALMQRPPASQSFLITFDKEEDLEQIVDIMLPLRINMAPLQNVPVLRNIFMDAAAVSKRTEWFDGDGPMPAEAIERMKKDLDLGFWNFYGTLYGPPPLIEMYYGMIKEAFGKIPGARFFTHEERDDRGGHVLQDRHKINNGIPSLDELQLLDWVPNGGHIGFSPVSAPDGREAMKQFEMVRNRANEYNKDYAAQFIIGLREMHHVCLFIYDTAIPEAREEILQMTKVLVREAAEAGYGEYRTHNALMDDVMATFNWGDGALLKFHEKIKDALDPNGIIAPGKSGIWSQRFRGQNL
Nature of the experiment: crystal structure. In kind it is binding. The note with it: covalent; His390 to C8M of flavin.

Experiment [2] concerns the target T1, Eugenol oxidase (EUGO). The experiment can be described thus: crystal structure of unsoaked native crystals. The note with it: weak inhibitor; density tentatively assigned, co-purified; active site Tyr-Tyr-Arg. Format: binding.

Turning to `Cc1cc2nc3c(=O)[nH]c(=O)nc-3n(C[C@H](O)[C@H](O)[C@H](O)COP(=O)(O)OP(=O)(O)OC[C@H]3O[C@@H](n4cnc5c(N)ncnc54)[C@H](O)[C@@H]3O)c2cc1C` [FAD], the crystal structure result in experiment [1] was “covalent bond between His390 (equivalent to His422 of VAO) and the C8M atom”.

As for `O=C(O)c1ccccc1` [benzoate], the “crystal structure of unsoaked native crystals” value in experiment [2] is given as “we found benzoate to be a weak EUGO inhibitor”.
